Test results taken from PubChem BioAssay AID624285 (Broad Institute, 2012).
Where “and” joins values, the source holds several entries; their conditions need not be identical. Identical values can stand only once. Calls of active or inactive are those of the source.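 How the source made its calls: active means signal-decreasing dose-response curve whose fitted half-maximal concentration is at or below twice the highest valid tested dose; inconclusive means flat fit at 30 to 70% signal loss, or poor fit; inactive means the rest.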

Experiment: cytotoxicity in mammalian cells, dose response, cytotoxicity control for PDI inhibitor project, cell-based, 24 h, luminescence, cherry-picked samples (AID 624285)
Conditions: NIH3T3/HeLa viability, CellTiter-Glo ATP luminescence, 24 h; at 35 µM (top of the series)

Structure (SMILES) | activity change, negative = cytotoxicity
CCCCn1c(SCC(=O)Nc2ccc(C)c(S(=O)(=O)N3CCOCC3)c2)nnc1C(CC)N(C)C (centres undefined) | 1.22% (inactive)
CCCCNC(=O)N1CCN(C(=O)C2CCCO2)CC1 (centres undefined) | -4.25% (inactive)
C/C=C(\C)C(=O)NCCN1C2=NC[C@H](Cc3ccc(O)cc3)N2C[C@H]1Cc1ccc(O)cc1 | -2.15% (inactive)
CC(=O)C1=C(O)C(=O)N(CCc2c[nH]c3ccccc23)C1c1ccc(O)cc1 (centres undefined) | -8.38% (inactive)
COc1cccc(/C=N/NC(=O)CNC(=O)c2ccc3c(c2)OCCO3)c1O | -12.5% (inactive)
CCOC(=O)c1ccc(NC(=O)C2(c3ccc(Cl)cc3)CCCC2)cc1 | -21.1% (inactive)
COc1ccccc1NC(=O)c1ccc(NC(=O)COC(=O)c2cccnc2Cl)cc1 | -3.13% (inactive)
COC(=O)CC1OCC=C2CN3CCC45C6=CC(=O)C(=O)C([N+](=O)[O-])=C6NC4C1C2CC35 (centres undefined) | -13% (inactive)
Cc1cc(C)c2c(=O)n3c(nc2c1)C(Cc1ccc(O)cc1)NC(=O)c1cccnc1-3 (centres undefined) | -10.3% (inactive)
COC(=O)c1cccc(CSc2nnc(C)s2)c1 | -12.9% (inactive)
Cc1noc(C)c1S(=O)(=O)Nc1ccc2c(c1)CC(=O)N([C@@H](C)CO)C[C@H](C)[C@H](CN(C)S(=O)(=O)c1ccc(F)cc1)O2 | 7.36% (inactive)
O=C(O)CCc1ccc(-c2cccs2)n1NC(=O)c1ccco1 | 0.695% (inactive)
COc1cccc(NC(=O)CN(C)C(=O)/C=C/c2cc(OC)ccc2OC)c1 | -4.31% (inactive)
CCCCN(C(=O)C1=CC=CN2CCS(=O)(=O)N=C12)c1ccccc1 | -2.89% (inactive)
O=C(N/N=C/c1cccc([N+](=O)[O-])c1)c1cnccn1 | -7.37% (inactive)
C[C@H](CO)N1C[C@H](C)[C@@H](CN(C)Cc2ccc(Oc3ccccc3)cc2)Oc2c(NS(C)(=O)=O)cccc2C1=O | 0.644% (inactive)
COc1cccc(-n2ccnc2SCC(=O)Nc2cc(OC)ccc2OC)c1 | -15.9% (inactive)
C[C@@H]1O[C@@H](O[C@H]2[C@H](O)[C@@H](O)[C@H](Oc3c(-c4ccc(O)cc4)oc4cc(O)cc(O)c4c3=O)O[C@@H]2CO)[C@H](O)[C@H](O)[C@H]1O | -3.49% (inactive)
O=C1CN(c2nc3ccccc3n3cnnc23)CC(=O)N1CCc1ccccc1 | -8.64% (inactive)
C[C@H]1CN([C@@H](C)CO)C(=O)c2cccc(NS(C)(=O)=O)c2O[C@@H]1CN(C)Cc1ccc(Oc2ccccc2)cc1 | -9.08% (inactive)
CC(=O)C1=C(O)C(=O)N(CCc2c[nH]c3ccccc23)C1c1cccc(O)c1 (centres undefined) | -10.4% (inactive)
COc1cc(CCC(=O)OCC(=O)Nc2cc(S(=O)(=O)N3CCOCC3)ccc2Cl)cc(OC)c1OC | -2.35% (inactive)
CCOc1ccc(C(=O)NCC(=O)OCC(=O)N(C)CC(=O)Nc2ccccc2CC)cc1OCC | -4.27% (inactive)
C[C@@H]1O[C@@H](Oc2c(-c3cc(O)c(O)c(O)c3)oc3cc(O)cc(O)c3c2=O)[C@H](O)[C@H](O)[C@H]1O | -5.81% (inactive)
CCOc1ccc(NC(=O)CN(C)C(=O)c2cc(C)nc3ccccc23)cc1OCC | -13.4% (inactive)

Structure (SMILES) | activity change, negative = cytotoxicity
Cn1nccc1C(=O)Nc1ccc(S(=O)(=O)N2CCCC2)cc1 | -14.9% (inactive)
Cc1noc(C)c1S(=O)(=O)Nc1ccc2c(c1)CC(=O)N([C@@H](C)CO)C[C@@H](C)[C@H](CN(C)S(=O)(=O)c1ccc(F)cc1)O2 | -10.5% (inactive)
O=C(OCc1ccc(-c2ccccc2)cc1)c1cccc(O)c1 | -8.38% (inactive)
O=C1[C@@H]2C(Cc3ccc(O)cc3)NC3(C(=O)Nc4ccc(F)cc43)[C@@H]2C(=O)N1c1ccccc1 (some centres undefined) | -14% (inactive)
C[C@@H]1O[C@@H](Oc2c(-c3ccc(O)c(O)c3)oc3cc(O)cc(O)c3c2=O)[C@H](O)[C@H](O)[C@H]1O | -1.28% (inactive) and -10.2% (inactive)
CN(C1=NC(=O)C(CC(=O)Nc2ccc(Br)cc2)S1)c1ccc(O)cc1 (centres undefined) | -8.95% (inactive)
COc1ccc(OC)c2[nH]c(=O)c(CCNC(=O)C(=O)c3c(C)[nH]c4ccccc34)cc12 | -1.3% (inactive)
C[C@@H]1O[C@@H](OC[C@H]2O[C@@H](Oc3c(-c4ccc(O)c(O)c4)oc4cc(O)cc(O)c4c3=O)[C@H](O)[C@@H](O)[C@@H]2O)[C@H](O)[C@H](O)[C@H]1O | -2.56% (inactive)
CCOc1ccccc1CN1CCNC(=O)C1CC(=O)NCc1nccn1CC (centres undefined) | -14.3% (inactive)
O=C(Nc1ccccc1)c1cc(C2CCCCN2C(=O)c2ccccc2)on1 (centres undefined) | -15.5% (inactive)
CC(=O)Nc1cccc(NC(=O)CCc2ccccc2)c1 | -12% (inactive)
O=C(NCCCN1CCOCC1)C(Sc1ccccc1)c1ccccc1 (centres undefined) | -12% (inactive)
NC1=NC[C@H](Cc2ccc(O)cc2)N1CC1CCCCC1 | -11.8% (inactive)
C=CCn1c(C(CCCC)CC(O)COCC(C)C)n[nH]c1=S (centres undefined) | -17.2% (inactive)
C[C@H]1CN([C@@H](C)CO)C(=O)c2cc(NC(=O)Cc3cn(C)c4ccccc34)ccc2O[C@H]1CN(C)S(=O)(=O)c1ccc(F)cc1 | -5.48% (inactive)
CC1(C(=O)Nc2cccc3c2CCCC3)CCN1C(=O)c1cccc(F)c1 (centres undefined) | -14.8% (inactive)
NC(=O)CSc1nnc([C@@H](N)Cc2c[nH]c3ccccc23)o1 | -10.6% (inactive)
COc1cc(C(=O)N2CCN(C/C=C/c3ccccc3)CC2)cc(OC)c1OC | -12% (inactive)
O=C(O)C1C(c2ccccc2)C(C(=O)Oc2ccc(O)cc2)C1c1ccccc1 (centres undefined) | -8.75% (inactive)
CN(C)C(=O)CSc1n[nH]c(-c2ccco2)n1 | -5.07% (inactive)
O=C1NC(Cc2ccc(O)cc2)c2nc3cc(Cl)ccc3c(=O)n2-c2ncccc21 (centres undefined) | -16.3% (inactive)
COc1ccc(/C(C)=N/NC(=O)CNC(=O)c2cccs2)cc1 | -6.13% (inactive)
O=C(Cn1nnc2ccccc21)OCC(=O)c1ccccc1 | -11.3% (inactive)
Cc1noc(C)c1S(=O)(=O)Nc1ccc2c(c1)CC(=O)N([C@H](C)CO)C[C@H](C)[C@H](CN(C)S(=O)(=O)c1ccc(F)cc1)O2 | 0.678% (inactive) and -3.98% (inactive)
O=C(O)CCCCCn1c(SCC(=O)c2ccc(O)c(O)c2)nc2ccsc2c1=O | -10.6% (inactive)

Structure (SMILES) | activity change, negative = cytotoxicity
CCN(CC)C(=O)CSc1nnc([C@H](Cc2c[nH]c3ccccc23)NC(=O)OC(C)(C)C)o1 | -8.74% (inactive)
CCOc1ncccc1C(=O)OCC(=O)Nc1ccc(C(C)C)cc1 | -7.86% (inactive)
CCCCNC(=O)CCn1c(=O)c2ccccc2n(CC(=O)Nc2ccccc2OCC)c1=O | -9.28% (inactive)
C[C@@H]1CN([C@H](C)CO)C(=O)c2cc(NC(=O)Cc3cn(C)c4ccccc34)ccc2O[C@@H]1CN(C)S(=O)(=O)c1ccc(F)cc1 | -8.29% (inactive)
CC(C)(C)OC(=O)N[C@@H](Cc1c[nH]c2ccccc12)c1nnc(SCC(N)=O)o1 | -7.43% (inactive)
O=C1/C(=C\c2ccc(O)cc2)CCC1CNc1ccc(Cl)cc1 (centres undefined) | -7.39% (inactive)
COc1cc(C(C)=O)ccc1OCC(=O)NCCCn1nc(C)cc1C | -1.82% (inactive)
C[C@@H](C(=O)NCc1ccccc1)N1C(=O)C2CC=CCC2C1=O (some centres undefined) | -8.35% (inactive)
CC(=O)NC(Cc1c[nH]c2ccccc12)C(=O)OCC(=O)N1CCN(S(=O)(=O)c2ccc(Cl)cc2)CC1 (centres undefined) | -10.5% (inactive)
C[C@]12CC[C@@H]3c4ccc(O[C@@H]5O[C@H](C(=O)O)[C@@H](O)[C@H](O)[C@H]5O)cc4CC[C@H]3[C@@H]1C[C@@H](O)[C@@H]2O | -6.13% (inactive)
COc1ccc(C(=O)Nc2ccccc2C(=O)NCc2ccco2)cc1 | -14.7% (inactive)
O=C(C[C@H]1C[C@H](C(=O)N2CCCCC2)[C@@]2(CCc3ccccc3)c3[nH]c4cc(-c5ccco5)ccc4c3CCN2C1=O)NCCC1=CCCCC1 | -13% (inactive)
Cc1[nH]c2ccc(C(=O)NC3CCCC3)cc2c1C | -3.79% (inactive)
Cc1cc(C)cc(CC(=O)N2CCC2(C)C(=O)NS(=O)(=O)c2ccc(Br)cc2)c1 (centres undefined) | -4.97% (inactive)
CN(CCC(=O)Nc1ccc(Br)cc1)Cc1ccccc1 | -5.93% (inactive)
CC(Cc1ccc(O)cc1)NCC(O)c1ccc(O)c(O)c1 (centres undefined) | -7.22% (inactive)
Cc1c(-n2cc(C(=O)c3cc(Br)ccc3O)cc(C#N)c2=O)c(=O)n(-c2ccccc2)n1C | -12.8% (inactive)
O=C(CCc1ccc(O)cc1)NN=Cc1cc(Br)ccc1O | -12.9% (inactive)
CC(C)CCOc1ccc(C2(C)NC(=O)N(CN3CCOCC3)C2=O)cc1 (centres undefined) | -15.3% (inactive)
CC(NC(=O)COC(=O)Cc1ccccc1[N+](=O)[O-])c1ccccc1 (centres undefined) | -0.036% (inactive)
CC[C@]12c3[nH]c4cc(-c5ccco5)ccc4c3CCN1C(=O)[C@@H](CC(=O)NCc1ccc(OC)c(OC)c1)C[C@@H]2C(=O)N1CCN(C(=O)C2CC2)CC1 | -17.7% (inactive)
COc1ccc2c(CC(=O)OCC(=O)N(C)c3c(N)n(Cc4ccccc4)c(=O)[nH]c3=O)coc2c1 | -8.77% (inactive)
O=C1CCC(=O)N1CCc1c[nH]c2ccccc12 | -6.09% (inactive)
Cc1ccc(C)c(NS(=O)(=O)c2c(C)nn(C)c2C)c1 | -1.82% (inactive)
